ChEMBL document CHEMBL1201862, “PubChem BioAssay data set” (2004)
Active and inactive are the calls of the source.

What was measured:
[1] = molecular target: T1, Ubiquitin-conjugating enzyme E2 N (Homo sapiens, UniProt P61088); assay type: functional;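 also: Dose-response confirmation in a TR-FRET assay detecting UBC13-driven polyubiquitin chain formation, inhibition measured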
T1 sequence (P61088 whole entry): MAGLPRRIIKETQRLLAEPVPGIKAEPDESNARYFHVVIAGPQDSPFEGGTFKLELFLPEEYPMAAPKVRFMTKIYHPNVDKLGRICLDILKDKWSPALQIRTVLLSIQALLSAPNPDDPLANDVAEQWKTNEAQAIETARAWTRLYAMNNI

[2] = molecular target: Glycogen synthase kinase-3 alpha (Homo sapiens, UniProt P49840); assay: Inhibition of Human GSK-3 alpha Activity Measured in Biochemical System Using Microfluidics - 2063-06_Inhibitor_Dose_DryPowder_Activity_Set2. [Related pubchem assays (depositor defined):AID2709]
[3] = molecular target: T2, Glycogen synthase kinase-3 beta (Homo sapiens, UniProt P49841); assay: Inhibition of Human GSK-3 beta Activity Measured in Biochemical System Using Microfluidics - 2063-05_Inhibitor_Dose_DryPowder_Activity_Set2. [Related pubchem assays (depositor defined):AID2709]
T2 sequence (P49841 whole entry): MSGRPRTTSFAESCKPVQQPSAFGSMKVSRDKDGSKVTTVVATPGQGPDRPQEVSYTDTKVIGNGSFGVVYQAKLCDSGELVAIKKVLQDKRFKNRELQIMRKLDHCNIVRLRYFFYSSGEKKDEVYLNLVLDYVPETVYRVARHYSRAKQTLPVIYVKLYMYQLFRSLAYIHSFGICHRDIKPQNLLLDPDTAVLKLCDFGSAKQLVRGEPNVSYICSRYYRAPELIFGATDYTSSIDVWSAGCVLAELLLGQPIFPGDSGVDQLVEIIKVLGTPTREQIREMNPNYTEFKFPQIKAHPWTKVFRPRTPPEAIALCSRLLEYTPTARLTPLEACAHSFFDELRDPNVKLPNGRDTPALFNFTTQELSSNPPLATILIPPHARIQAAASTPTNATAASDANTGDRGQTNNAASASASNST

[4] = molecular target: Cyclin-dependent kinase 5/CDK5 activator 1 (Homo sapiens, UniProt Q00535); assay: human CDK5 activity blockade – biochemical, microfluidic mobility shift, dry powder, selectivity assay for GSK-3 alpha inhibitor project, dose response (AID 588430)
Cyclin-dependent kinase 5/CDK5 activator 1, sequence (Q00535 whole entry): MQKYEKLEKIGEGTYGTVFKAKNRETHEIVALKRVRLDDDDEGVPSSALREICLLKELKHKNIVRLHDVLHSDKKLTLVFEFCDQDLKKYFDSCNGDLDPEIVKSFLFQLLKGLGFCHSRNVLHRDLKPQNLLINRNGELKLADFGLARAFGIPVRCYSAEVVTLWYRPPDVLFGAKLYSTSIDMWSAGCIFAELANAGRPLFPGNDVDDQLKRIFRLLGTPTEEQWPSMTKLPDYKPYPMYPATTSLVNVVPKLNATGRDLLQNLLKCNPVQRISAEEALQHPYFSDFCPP
Cyclin-dependent kinase 5/CDK5 activator 1, sequence (Q15078 whole entry, further chain): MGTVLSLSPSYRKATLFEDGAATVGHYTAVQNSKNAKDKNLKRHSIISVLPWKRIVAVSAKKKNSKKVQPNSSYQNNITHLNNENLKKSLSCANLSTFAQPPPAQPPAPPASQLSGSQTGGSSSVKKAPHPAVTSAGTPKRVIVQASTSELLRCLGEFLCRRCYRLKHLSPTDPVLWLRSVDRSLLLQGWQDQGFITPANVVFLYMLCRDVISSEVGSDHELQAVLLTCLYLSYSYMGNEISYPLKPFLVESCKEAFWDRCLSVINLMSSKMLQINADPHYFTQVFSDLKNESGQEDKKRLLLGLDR

[5] = molecular target: ALK tyrosine kinase receptor (Homo sapiens, UniProt Q9UM73); assay type: functional;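 also: ALK tested as one member of a kinase panel screen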
[6] = molecular target: Serine/threonine-protein kinase pim-1 (Homo sapiens, UniProt P11309); assay type: functional
Serine/threonine-protein kinase pim-1, sequence (P11309 whole entry): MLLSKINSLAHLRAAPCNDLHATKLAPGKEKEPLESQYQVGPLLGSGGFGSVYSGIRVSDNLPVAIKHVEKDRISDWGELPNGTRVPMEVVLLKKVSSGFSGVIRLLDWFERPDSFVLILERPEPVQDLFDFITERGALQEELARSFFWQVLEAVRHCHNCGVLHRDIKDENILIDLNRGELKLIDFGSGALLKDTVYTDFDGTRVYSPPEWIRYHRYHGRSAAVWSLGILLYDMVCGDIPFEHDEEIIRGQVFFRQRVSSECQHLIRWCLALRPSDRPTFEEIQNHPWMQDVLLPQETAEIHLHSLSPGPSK

[7] = molecular target: Cell division cycle 7-related protein kinase (Homo sapiens, UniProt O00311); assay type: functional;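 also: value obtained from a kinome-wide kinase panel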
Cell division cycle 7-related protein kinase, sequence (O00311 whole entry): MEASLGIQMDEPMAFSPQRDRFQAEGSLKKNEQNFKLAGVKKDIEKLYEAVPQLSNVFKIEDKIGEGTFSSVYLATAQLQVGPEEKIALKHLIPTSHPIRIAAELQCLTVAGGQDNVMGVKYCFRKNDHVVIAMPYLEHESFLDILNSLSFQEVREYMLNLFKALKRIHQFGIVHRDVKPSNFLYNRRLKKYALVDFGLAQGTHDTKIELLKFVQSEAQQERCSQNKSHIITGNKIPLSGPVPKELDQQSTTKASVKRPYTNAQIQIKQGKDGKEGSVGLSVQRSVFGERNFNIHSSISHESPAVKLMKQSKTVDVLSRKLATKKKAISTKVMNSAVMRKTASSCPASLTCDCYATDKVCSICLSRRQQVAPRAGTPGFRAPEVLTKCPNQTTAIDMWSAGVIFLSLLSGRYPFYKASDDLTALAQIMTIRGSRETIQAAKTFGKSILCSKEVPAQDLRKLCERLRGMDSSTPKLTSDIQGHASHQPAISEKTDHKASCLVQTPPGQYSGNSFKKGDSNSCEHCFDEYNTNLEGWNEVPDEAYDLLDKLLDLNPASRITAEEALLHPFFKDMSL

[8] = molecular target: Homeodomain-interacting protein kinase 2 (Homo sapiens, UniProt Q9H2X6); assay type: functional;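 also: measured within a kinome-wide kinase profiling panel, HIPK2 being one panel member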
[9] = molecular target: Interleukin-1 receptor-associated kinase 4 (Homo sapiens, UniProt Q9NWZ3); assay type: functional
Interleukin-1 receptor-associated kinase 4, sequence (Q9NWZ3 whole entry): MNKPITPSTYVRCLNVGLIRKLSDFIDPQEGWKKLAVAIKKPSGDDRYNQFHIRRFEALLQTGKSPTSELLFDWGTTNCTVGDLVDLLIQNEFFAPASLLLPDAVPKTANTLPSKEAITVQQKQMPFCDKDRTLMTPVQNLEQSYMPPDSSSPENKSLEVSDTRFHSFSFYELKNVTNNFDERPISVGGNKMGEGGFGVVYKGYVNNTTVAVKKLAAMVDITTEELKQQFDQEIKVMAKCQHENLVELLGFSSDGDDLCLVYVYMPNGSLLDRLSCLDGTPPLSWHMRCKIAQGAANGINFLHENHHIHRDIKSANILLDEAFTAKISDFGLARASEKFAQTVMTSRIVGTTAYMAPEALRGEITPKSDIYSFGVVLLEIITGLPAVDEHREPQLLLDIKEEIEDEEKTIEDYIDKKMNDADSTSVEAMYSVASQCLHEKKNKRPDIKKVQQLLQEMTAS

[10] = molecular target: T2, Glycogen synthase kinase-3 beta; assay type: functional
[11] = molecular target: cAMP-dependent protein kinase catalytic subunit alpha (Homo sapiens, UniProt P17612); assay type: functional
[12] = HPDE-C7 pancreatic duct cell viability loss – fluorescence, HTS (AID 430); assay type: functional, cell-based; conditions: Homo sapiens
[13] = viability loss of HPDE-C7K cells – cell-based, fluorescence, HTS, primary screen (AID 431); assay type: functional; conditions: Homo sapiens
[14] = viability of PTEN-deleted HCT116 cells – cell-based, HCT116 PTEN knockout, dose response (AID 1047); assay type: functional;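 also: HCT116 colon tumor cells with PTEN knocked out; cells exposed to compound for 60 hours before readout; potency for loss of cell viability measured by luminescence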
[15] = viability of HCT116 lacking mutant beta-catenin – cell-based, human colon tumor, dose response (AID 1045); assay type: functional;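 also: HCT116 colon tumor cells with beta catenin knocked out; cells exposed to compound for 60 hours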
HEK293 = assay: EBV LMP1 TES2 canonical NF-kB signalling blockers – cell-based, HEK293, luciferase, cherry-pick, dose response (AID 588343); assay type: functional; conditions: Homo sapiens
[16] = molecular target: Latent membrane protein 1 (Human herpesvirus 4 (strain B95-8), UniProt P03230); assay: LMP1 TES1 pathway selectivity over dsRED control – imaging, HEK293T, dual-color eGFP/dsRED, cherry-picks, selectivity assay for LMP1 NF-kB inhibitor project, dose response (AID 588398); assay type: functional, cell-based
Latent membrane protein 1, sequence (P03230 whole entry): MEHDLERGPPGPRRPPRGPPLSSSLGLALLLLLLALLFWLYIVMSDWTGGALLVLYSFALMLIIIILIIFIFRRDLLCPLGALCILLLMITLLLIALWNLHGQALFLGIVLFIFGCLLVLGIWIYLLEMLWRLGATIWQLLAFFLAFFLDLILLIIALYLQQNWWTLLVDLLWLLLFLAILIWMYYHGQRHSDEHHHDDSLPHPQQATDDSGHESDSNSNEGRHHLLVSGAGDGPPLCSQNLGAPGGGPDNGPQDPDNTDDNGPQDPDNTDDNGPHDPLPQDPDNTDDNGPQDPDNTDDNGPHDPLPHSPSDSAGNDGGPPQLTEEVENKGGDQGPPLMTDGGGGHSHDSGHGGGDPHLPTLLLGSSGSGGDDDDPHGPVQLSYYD

[17] = molecular target: Protein disulfide-isomerase (Homo sapiens, UniProt P07237); assay: inhibition of PDI-driven insulin aggregation – biochemical, turbidity, absorbance, cherry-picked samples, dose response (AID 602350); assay type: functional
Protein disulfide-isomerase, sequence (P07237 whole entry): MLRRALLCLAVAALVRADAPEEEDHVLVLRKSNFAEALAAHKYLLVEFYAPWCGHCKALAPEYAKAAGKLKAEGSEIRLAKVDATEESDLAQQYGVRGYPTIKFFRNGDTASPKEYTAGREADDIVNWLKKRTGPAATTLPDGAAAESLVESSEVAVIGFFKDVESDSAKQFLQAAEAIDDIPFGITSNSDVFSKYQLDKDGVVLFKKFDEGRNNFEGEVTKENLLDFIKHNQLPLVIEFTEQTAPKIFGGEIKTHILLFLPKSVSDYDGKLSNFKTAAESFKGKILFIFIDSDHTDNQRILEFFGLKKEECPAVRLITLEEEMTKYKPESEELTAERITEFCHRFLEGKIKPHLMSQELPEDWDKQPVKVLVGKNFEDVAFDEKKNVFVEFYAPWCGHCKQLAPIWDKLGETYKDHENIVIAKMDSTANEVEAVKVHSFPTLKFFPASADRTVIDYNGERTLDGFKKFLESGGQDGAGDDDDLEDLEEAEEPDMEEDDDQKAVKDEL

[18] = molecular target: T3, Methionyl-tRNA synthetase, putative (Trypanosoma brucei brucei, UniProt Q38C91); assay type: functional, Trypanosoma brucei brucei strain 927/4 GUTat10.1
T3 sequence (Q38C91 whole entry): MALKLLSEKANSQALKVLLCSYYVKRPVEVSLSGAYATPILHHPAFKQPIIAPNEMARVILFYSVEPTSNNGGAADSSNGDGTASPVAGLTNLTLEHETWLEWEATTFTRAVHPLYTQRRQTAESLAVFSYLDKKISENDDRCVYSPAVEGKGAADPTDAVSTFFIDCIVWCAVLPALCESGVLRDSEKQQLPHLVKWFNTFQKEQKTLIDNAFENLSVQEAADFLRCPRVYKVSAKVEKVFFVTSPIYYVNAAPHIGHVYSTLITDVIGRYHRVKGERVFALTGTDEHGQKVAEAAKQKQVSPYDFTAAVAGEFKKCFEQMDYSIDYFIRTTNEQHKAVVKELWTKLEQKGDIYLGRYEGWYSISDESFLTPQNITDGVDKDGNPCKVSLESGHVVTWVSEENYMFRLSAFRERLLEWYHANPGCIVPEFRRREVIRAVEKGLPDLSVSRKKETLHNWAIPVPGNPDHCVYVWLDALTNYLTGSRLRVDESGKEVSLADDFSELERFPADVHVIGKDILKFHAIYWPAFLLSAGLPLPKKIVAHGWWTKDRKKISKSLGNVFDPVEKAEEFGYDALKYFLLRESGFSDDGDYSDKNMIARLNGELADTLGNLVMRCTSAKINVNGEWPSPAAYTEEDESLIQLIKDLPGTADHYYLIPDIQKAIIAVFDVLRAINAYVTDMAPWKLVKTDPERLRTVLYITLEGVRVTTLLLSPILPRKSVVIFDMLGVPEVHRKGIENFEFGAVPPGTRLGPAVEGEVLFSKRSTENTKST

[19] = Counterscreen for inhibitors of Trypanosoma brucei methionyl tRNA synthetase (MetRS): Luminescence-based cell-based high throughput dose response assay to identify compounds that are cytotoxic to Jurkat human T lymphocyte cells.; assay type: functional
[20] = molecular target: T3, Methionyl-tRNA synthetase, putative; assay type: functional, Trypanosoma brucei brucei strain 927/4 GUTat10.1; remark: listed apart in the source
[21] = Mcl1-dependent cancer cell viability – HMC-1-8 cells, luminescence, dry powder, selectivity assay for A1 inhibitor project, dose response (AID 504415); assay type: functional, cell-based; conditions: Homo sapiens
CHO-K1 = assay: (§1) Counterscreen for antagonists of the orexin 1 receptor (OX1R; HCRTR1): Homogeneous time resolved fluorescence (HTRF)-based cell-based dose response assay to identify antagonists of the parental CHO-K1 cell line. [Related pubchem assays (depositor defined):AID434989, AID435008, AID463079, AID485270, AID492963, AID492964, AID492965, AID493232, AID504699, AID504701]; assay type: functional; conditions: Cricetulus griseus
[22] = as §1, with “Fluorescence-based” for “Homogeneous time resolved fluorescence (HTRF)-based”, “cell-based high throughput” for “cell-based”, “CHO” for “CHO-K1”; assay type: functional
[23] = molecular target: T4, Orexin/Hypocretin receptor type 1 (Homo sapiens, UniProt O43613); assay: Homogeneous Time Resolved Fluorescence (HTRF)-based cell-based high throughput dose response assay for antagonists of the orexin 1 receptor (OX1R; HCRTR1). [Related pubchem assays (depositor defined):AID434989, AID435008, AID463079, AID485270, AID492963, AID492964, AID492965, AID493232, AID504717, AID504718]; assay type: functional
T4 sequence (O43613 whole entry): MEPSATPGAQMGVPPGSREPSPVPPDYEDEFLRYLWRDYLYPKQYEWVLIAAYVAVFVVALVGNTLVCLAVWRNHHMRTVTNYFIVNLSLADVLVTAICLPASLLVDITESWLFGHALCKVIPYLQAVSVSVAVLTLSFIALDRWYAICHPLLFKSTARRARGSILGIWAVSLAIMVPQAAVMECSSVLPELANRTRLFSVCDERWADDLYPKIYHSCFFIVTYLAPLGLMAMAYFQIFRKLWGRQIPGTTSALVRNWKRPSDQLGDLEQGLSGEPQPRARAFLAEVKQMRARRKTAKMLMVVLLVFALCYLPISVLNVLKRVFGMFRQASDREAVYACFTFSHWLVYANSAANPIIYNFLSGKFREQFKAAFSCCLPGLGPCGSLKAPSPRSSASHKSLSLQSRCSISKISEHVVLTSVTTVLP

[24] = molecular target: T4, Orexin/Hypocretin receptor type 1; assay: Fluorescence-based cell-based high throughput dose response assay for antagonists of the orexin 1 receptor (OX1R; HCRTR1). [Related pubchem assays (depositor defined):AID434989, AID435008, AID463079, AID485270, AID492963, AID492964, AID492965, AID493232, AID504717, AID504718]; assay type: functional
Orexin receptor type 2 [25] = molecular target: T5, Orexin receptor type 2 (Homo sapiens, UniProt O43614); assay: Counterscreen assay for antagonists of the orexin 1 receptor (OX1R; HCRTR1): Fluorescence-based cell-based dose response assay for antagonists of the orexin 2 receptor (OX2R; HCRTR2), run by assay provider.; assay type: functional
T5 sequence (O43614 whole entry): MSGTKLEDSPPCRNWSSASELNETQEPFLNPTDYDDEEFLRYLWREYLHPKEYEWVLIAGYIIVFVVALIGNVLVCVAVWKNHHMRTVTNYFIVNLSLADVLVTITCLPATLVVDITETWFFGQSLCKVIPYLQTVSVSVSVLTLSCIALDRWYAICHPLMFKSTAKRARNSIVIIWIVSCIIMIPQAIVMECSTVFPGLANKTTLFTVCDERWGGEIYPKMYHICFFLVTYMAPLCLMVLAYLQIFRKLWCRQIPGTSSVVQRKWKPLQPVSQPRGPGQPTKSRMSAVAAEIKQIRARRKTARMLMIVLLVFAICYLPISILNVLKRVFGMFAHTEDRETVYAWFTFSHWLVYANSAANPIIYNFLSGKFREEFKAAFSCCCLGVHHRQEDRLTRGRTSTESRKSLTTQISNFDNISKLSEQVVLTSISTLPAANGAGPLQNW

Orexin receptor type 2 [26] = molecular target: T5, Orexin receptor type 2; assay: Counterscreen assay for antagonists of the orexin 1 receptor (OX1R; HCRTR1): Homogeneous Time Resolved Fluorescence (HTRF)-based cell-based dose response assay for antagonists of the orexin 2 receptor (OX2R; HCRTR2), run by assay provider.; assay type: functional
[27] = molecular target: Testis-specific serine/threonine-protein kinase 2 (Homo sapiens, UniProt Q96PF2); assay type: functional;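 also: part of the Navigating the Kinome panel, target entry STK22B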
Testis-specific serine/threonine-protein kinase 2, sequence (Q96PF2 whole entry): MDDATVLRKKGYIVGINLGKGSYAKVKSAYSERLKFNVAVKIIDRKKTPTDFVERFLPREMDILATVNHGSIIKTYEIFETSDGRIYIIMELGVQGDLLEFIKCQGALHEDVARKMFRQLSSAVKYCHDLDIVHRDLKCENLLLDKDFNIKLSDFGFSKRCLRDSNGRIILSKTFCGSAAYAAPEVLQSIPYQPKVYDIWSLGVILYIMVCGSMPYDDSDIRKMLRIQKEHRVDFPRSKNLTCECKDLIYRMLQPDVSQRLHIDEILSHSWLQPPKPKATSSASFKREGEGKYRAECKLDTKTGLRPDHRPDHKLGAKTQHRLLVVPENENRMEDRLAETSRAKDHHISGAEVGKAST

[28] = Luminescence Cell-Based Dose Retest to Confirm Inhibitors of Cancer Stem Cells. [Related pubchem assays (depositor defined):AID2717, AID2721]; assay type: functional; conditions: Homo sapiens
INS1 = assay: INS-1E survival protection against cytokine death – cell-based, luminescence, retest, dose response (AID 449756); assay type: functional; conditions: Rattus norvegicus;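 also: cell death triggered by IL-1 beta plus TNF-alpha plus IFN-gamma mixture; protective hits raise ATP signal compared with cytokine alone wells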
[29] = molecular target: T6, High affinity choline transporter 1 (Homo sapiens, UniProt Q9GZV3); assay: human choline transporter potentiators, potency – cell-based, 10-point CRC, membrane potential dye, dose response (AID 602376); assay type: functional
T6 sequence (Q9GZV3 whole entry): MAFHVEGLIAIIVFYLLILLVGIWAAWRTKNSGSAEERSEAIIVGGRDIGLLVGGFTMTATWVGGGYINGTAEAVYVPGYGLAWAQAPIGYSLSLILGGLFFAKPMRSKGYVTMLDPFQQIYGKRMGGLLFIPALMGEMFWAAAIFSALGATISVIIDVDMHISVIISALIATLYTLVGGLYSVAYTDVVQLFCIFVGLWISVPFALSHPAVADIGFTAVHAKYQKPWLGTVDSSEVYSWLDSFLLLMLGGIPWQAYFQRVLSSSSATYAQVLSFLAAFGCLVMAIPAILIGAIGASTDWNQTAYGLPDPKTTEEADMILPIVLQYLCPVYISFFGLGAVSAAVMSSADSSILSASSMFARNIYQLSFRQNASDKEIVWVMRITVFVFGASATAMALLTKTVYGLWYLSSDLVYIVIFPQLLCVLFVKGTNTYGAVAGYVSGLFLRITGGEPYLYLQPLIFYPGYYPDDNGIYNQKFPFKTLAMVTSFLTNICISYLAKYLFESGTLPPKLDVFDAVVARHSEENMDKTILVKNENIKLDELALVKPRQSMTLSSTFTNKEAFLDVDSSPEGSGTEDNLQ

[30] = viability loss in HepG2 liver cells – cell-based, ATP luminescence, cherry-pick, set 6, cytotoxicity control, dose response (AID 1053125); assay type: functional
[31] = molecular target: RNA-editing ligase 1, mitochondrial (Trypanosoma brucei brucei, UniProt P86926); assay: inhibition of trypanosome RNA editing ligase – biochemical, fluorescence, Trypanosoma brucei, dose response (AID 1117295); assay type: functional
RNA-editing ligase 1, mitochondrial, sequence (P86926 whole entry): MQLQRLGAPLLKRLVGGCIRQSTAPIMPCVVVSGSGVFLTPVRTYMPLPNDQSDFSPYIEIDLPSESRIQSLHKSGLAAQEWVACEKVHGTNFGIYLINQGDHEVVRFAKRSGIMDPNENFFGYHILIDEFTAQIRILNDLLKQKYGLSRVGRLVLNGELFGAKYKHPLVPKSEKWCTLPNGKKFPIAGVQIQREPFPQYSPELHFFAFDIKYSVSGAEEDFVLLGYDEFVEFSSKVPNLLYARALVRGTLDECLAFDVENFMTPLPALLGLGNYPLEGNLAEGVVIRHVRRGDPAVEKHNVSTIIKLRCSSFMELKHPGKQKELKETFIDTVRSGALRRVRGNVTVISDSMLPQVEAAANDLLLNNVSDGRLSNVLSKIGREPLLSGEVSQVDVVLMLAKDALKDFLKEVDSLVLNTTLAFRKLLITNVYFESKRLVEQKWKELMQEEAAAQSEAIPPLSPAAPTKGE

cells [32] = conditions: A549
cells [33] = conditions: HEK293

Compound: O/N=C/c1cn(-c2ccccc2)nc1-c1ccc2c(c1)OCCO2
- IC50 [1]: > 20 µM (inactive)
- AC50 [2]: 0.984 µM (active)
- AC50 [3]: 0.351 µM (active)
- AC50 [4]: 28.4 µM (active)

Compound: CN(Cc1ccccc1)c1cc(-c2c[nH]c3ncccc23)cc(Cl)n1
- Ki [5]: > 5.01 µM (inactive)
- Ki [6]: 0.251 µM (active)
- Ki [7]: 0.00794 µM (active)
- Ki [8]: 0.158 µM (active)
- Ki [9]: 0.2 µM (active)
- Ki [10]: 0.0398 µM (active)
- Ki [11]: 0.0398 µM (active)

Compound: COc1ccc(C(=O)C(CN2CCOCC2)c2ccccc2)cc1F (configuration not stated)
- EC50 [12]: 5.54 µM (active)
- EC50 [13]: 8.65 µM (active)
- EC50 [14]: 2.19 µM (active)
- EC50 [15]: 1.31 µM (active)
- AC50 (HEK293): 13.2 µM (active)
- AC50 [16]: 5.06 µM (active)

Compound: C[C@H]1CN([C@@H](C)CO)C(=O)Cc2cc(NC(=O)Nc3ccccc3)ccc2O[C@H]1CN(C)Cc1ccccc1
- AC50 [17]: 10.3 µM (active)
- IC50 [18]: 25.1 µM (inactive)
- IC50 [19]: 27.8 µM (inactive)
- IC50 [20]: 21.4 µM (inactive)

Compound: Cc1ccc(Sc2c([N+](=O)[O-])cnc3ccccc23)cc1
- AC50 [21]: 22.9 µM (active)

Compound: Cc1ccc(-c2cc3nc(-c4ccccc4)cc(N4CCC5(CC4)OCCO5)n3n2)cc1
- IC50 (CHO-K1): > 66.2 µM (inactive)
- IC50 [22]: > 49.7 µM (inactive)
- IC50 [23]: 5.68 µM (active)
- IC50 [24]: 17.4 µM (inactive)
- IC50 (Orexin receptor type 2 [25]): 24.9 µM (inactive)
- IC50 (Orexin receptor type 2 [26]): > 50 µM (inactive)

Compound: CNC(=O)c1cc(Oc2ccc(NC(=O)Nc3ccc(Cl)c(C(F)(F)F)c3)cc2)ccn1 [SORAFENIB]
- Ki [27]: > 1.58 µM (inactive)

Compound: COc1ccc(C[C@H]2CN3C(=NC[C@@H]3Cc3ccccc3)N2CCNC(=O)CCC2CCCCC2)cc1
- AC50 [28]: 11.2 µM (active)
- IC50 [1]: > 20 µM (inactive)
- AC50 (INS1): 5.74 µM (active)
- EC50 [29]: 22 µM (active)
- AC50 [30]: 7.94 µM (active)
- IC50 [31]: > 96.6 µM (inactive)
- AC50 (cells [32]): 8.94 µM (active)
- AC50 (cells [33]): 13.4 µM (active)
